The results in this text go back to patent US9416136B2, “Pyrrolopyrimidine compounds and their uses” (Novartis AG, priority 2008, dated 2016).

One test relates to cell cycle. Briefly: cell cycle analysis. Conditions: concentrations of 1 and 10 uM. In kind it is cell-based. An excerpt:
(§1) Moreover, the inhibitory effects of the CDK4 inhibitor are absolutely dependent upon the presence of the Retinoblastoma protein (pRb). Activities in pRb negative cells for candidate CDK4 inhibitors indicate that the compounds have off-target activities and not as selective.

For the next test, the system named is pRb negative cells. In words: cell proliferation of pRb negative cells. Conditions: high concentrations. In kind it is cell-based.
Text: as §1

With `CN(C)C(=O)c1cc2cnc(Nc3ccc(N4CCNCC4)cc3)nc2n1C1CCCC1` [Example 200], the “cell cycle arrest phase” value in the test with cell cycle is “starts to induce G2/M phase blocks”. Moreover, the “inhibition of cell proliferation of pRb negative cells” value in the test on pRb negative cells was “does inhibit the cell proliferation of pRb negative cells at high concentrations”.
